Reference: patent publication US10758619B2, “Controlled release mucoadhesive systems” (THE OHIO STATE UNIVERSITY, priority 2010, dated 2020)
Values after ≈ are worked out from the molar mass of the structure shown.

How the values were obtained:
[1] = Water solubility of fenretinide; assay type: physicochemical
[2] = Solubility of fenretinide in simulated saliva; assay type: physicochemical; details: pH 6.8
Method: The extent of solubility enhancement of fenretinide by numerous solubilizers (bile salts, surfactants, hydrophilic polymers, and co-solvents) was studied by determining the solubility in simulated saliva in the presence of 0.5, 1, 2, and 5% w/v solubilizers. Briefly, an excess amount of fenretinide was added into separate amber color ampoules containing 1-mL 0.5, 1, 2, and 5% w/v solutions of solubilizers (prepared using N2-purged simulated saliva) and sealed under vacuum in order remove the oxygen from the head-space. The ampoules were then placed in an incubator maintained at 37° C. and shaken at 240 RPM for 72 h (this duration was determined to be sufficient to reach the equilibrium). After 72 h, the ampoules were broken, mixture was passed through 0.45 μm PVDF filter units (Millipore, USA), diluted suitably with respective solubilizer solution, and the amount of fenretinide solubilized in simulated saliva was determined by HPLC.

[3] = Fenretinide solubility in bovine serum; assay type: physicochemical; details: for time required to achieve equilibrium with bovine serum: 37° C.
Method: Excessive amount of fenretinide was added into fetal bovine serum in polypropylene tubes. The sample was placed on a mechanical circulator and incubated at 37 C avoiding light. At every 24 hours (until fenretinide reached saturation in serum), the sample was centrifuged at 8000 rpm for 10 minutes. 0.2 ml sample was drawn from the supernatant. This volume was immediately replaced using blank serum. The tubes were shook to mix the supernatant and sediment, and then re-placed on the mechanical circulator and incubated at 37 C. The fenretinide concentration in the supernatant was measured by a HPLC assay after extraction using acetonitrile.
A known quantity (0.9, 2.26, 3.97, 8.03, and 20.5 mg) of fenretinide was added to polypropylene tubes containing 15 mL fetal bovine serum. The samples were incubated at 37° C. under constant rotation using a rigged rotator and protection from light. At every 24 h till 7 days, the samples were centrifuged at 8000 rpm for 10 minutes and 200 μl of supernatant was withdrawn. Withdrawn serum sample was replaced with fresh serum sample, mixed properly, and incubated again under similar conditions. To the withdrawn sample (200 μl), 2 mL of acetonitrile was added, agitated overnight on a mechanical shaker with protection from light, passed through 0.45 μm PVDF filter units, and analyzed by HPLC.

[4] = cited from earlier work
[5] = test system: cellular terminal differentiation and apoptosis; details: cited from earlier work

water solubility [1]: below HPLC detection limit
solubility in simulated saliva [2]: insoluble
time required to achieve equilibrium with bovine serum ([3]; 0.9 mg fenretinide in 15 mL serum): 7 days
time required to achieve equilibrium with bovine serum ([3]; 8.03 mg fenretinide in 15 mL serum): 4 days
solubility of fenretinide in bovine serum ([3]; fetal bovine serum, 37° C. (Example 3, FIG. 10A)): 21 µg/mL
solubility at 6 days ([3]; plasma or biological fluid, thermodynamic from solid, fetal bovine serum, 37 C, after 6 days incubation (Example 2)): 20.9 ± 1.02 µg/mL (≈ 53.5 µM)
solubility ([3]; plasma or biological fluid, thermodynamic from solid, fetal bovine serum, 37° C. (Example 3, FIG. 10A)): 21 ± 1 µg/mL (≈ 53.6 µM)
Structure (SMILES): CC1=C(/C=C/C(C)=C/C=C/C(C)=C/C(=O)Nc2ccc(O)cc2)C(C)(C)CCC1 [Fenretinide, 4-hydroxy(phenyl)retinamide]
intrinsic aqueous solubility [4]: 0.0098 µg/mL
in vitro concentration inducing apoptosis [5]: > 5 µM
in vitro concentration inducing cellular terminal differentiation [5]: < 3 µM
